Laboratory results: patent US11352358B2, “FXR agonist” (XUANZHU BIOPHARMACEUTICAL CO., LTD., priority 2017, dated 2022)
Marks after values point to notes of the source that are not given here.

How the values were obtained:
SHP mRNA in AML12 cells = experiment: Relative expression of SHP mRNA in AML12 cells, EC50 (Experimental Example 4); format: cell-based; conditions: Mus musculus, 24 hrs
Protocol: compounds of the present invention (for their chemical names and preparation methods, see the preparation example for each compound).
AML12 cells: mouse liver cells.
Control: compound 1-1B with a structure shown as follows, prepared according to a prior art method (for detailed information, see patent application WO2012087519A1).
Cells were digested with pancreatin and collected, and the concentration of the cells was determined; according to the counting result, the cells were resuspended to a density of 7.5×10^4 cells/mL; 1 mL of the cell suspension was inoculated in each well of a 12-well cell culture plate; and the culture plate was placed in an incubator and cultured under the conditions of 37° C. and 5% CO2 for 24 hrs.
The compound were diluted to 1000, 200, 8, 1.6, 0.32, 0.128, 0.0256 and 0.00512 μM with DMSO. Compound solutions of different concentrations obtained in the previous step were further diluted by 1000 times with media to obtain working solutions, and a medium containing 0.1% of DMSO was adopted as a control group. The cell culture plate was taken out from the incubator, the medium was removed, and the working solutions and the control medium were added. The culture plate was placed back into the incubator and cultured under the conditions of 37° C. and 5% CO2 for 24 hrs.
after treatment for 24 hrs, the cell culture plate was taken out from the incubator, and the medium was removed from the plate; the cells were rinsed three times with pre-cooled (4° C.) PBS (phosphate buffer solution); and 200 μL of pancreatin (preheated to 37° C.) was added to each well, and the plate was then gently shaken such that the pancreatin could evenly cover the plate bottom. The culture plate was then placed back into the incubator and incubated until the cells were separated from the plate bottom. 1 mL of medium was added to terminate digestion. […]

[1] = test system: high fat-induced NAFLD/NASH mice; experiment: High fat-induced NAFLD/NASH mice (Experimental Example 5); format: in vivo, C57BL/6J male mice
Source text: Build of NAFLD/NASH (non-alcoholic fatty liver disease/nonalcoholic steatohepatitis) mouse models: six-week-old C57BL/6J male mice were fed with high-fat feed, and were weighed each week to record the body weights of the mice; and after high-fat feeding for 8 weeks, the mice were weighed to determine whether the modeling is successful.
According to the body weight values (40 g was generally considered as a screening critical point), the successfully-modeled mice were divided into a blank control group, a model control group and the compound 2-1 (1 mg/kg) group, wherein the average body weights of all groups were consistent, without any significant difference. The mice were administered once every day (QD) (8 # intragastric syringe) for 3 weeks.
24 hrs after the last administration, blood was sampled from the inner canthus; the sampled blood stood at room temperature for 1 to 2 hrs, and was centrifuged at 4,000 rpm for 15 mins, and the serum was collected; the mice were euthanized thereafter, and a large liver lobe and a small liver lobe were cut off and put into 10% neutral formalin, and the remainings were stored in a refrigerator at −80° C. For the detailed administration method, administration dosage and administration route, see the table below.
Route, dosage and regimen of administration in experiment for influence of compounds of the present invention on high fat-induced NAFLD/NASH mice
2.1 Experimental Observation Index • 1) Body weight: Weighing was performed once every week from the beginning of modeling. Weighing was performed once every week after administration. • 2) Analysis of morphological and pathological changes of livers: Liver tissues were separated, collected and photographed. The livers were weighed, and ratios of liver weight/body weight were calculated. The tissue was sliced and stained by H&E (NAFLD score, NAS). • 3) Assay of biochemical indexes of livers: TG in the livers was extracted according to the manual of a tissue cell triglyceride assay kit (purchased from Applygen Technologies Inc. E1013), and assayed. • 4) Assay of biochemical indexes of serums: LDL in serums was assayed with a full-automatic biochemical analyzer (Hitachi 7180, model: X594).
Data were represented by mean±S.E.M., and one-way analysis of variance (ANOVA) followed LSD or independent-sample T test were performed on the statistical data with statistical software SPSS 16.0. Statistical differences were tested, and p<0.05 was defined as a significant difference.

Q: What does the source list for `O=C(O)c1ccc2nc(N3C[C@@H]4C[C@H]3C[C@H]4OCc3c(-c4c(Cl)cccc4Cl)noc3C3CC3)sc2c1` [Compound 2-1, 2-((1S, 4S, 5R)-5-((5-cyclopropyl-3-(2,6-dichlorophenyl)isoxazol-4-yl)methoxy)-2-azabicyclo[2.2.1]heptan-2-yl)benzo[d]thiazole-6-carboxylic acid]?
A: EC50 (SHP mRNA in AML12 cells): 0.76 nM; Liver Weight/Body Weight ([1]; 1 mg/kg p.o. QD for 3 weeks, increased or decreased ratio of the experimental group to the model group): −9%*; NAFLD Activity Score ([1]; H&E liver slices, 1 mg/kg p.o. QD for 3 weeks, model group 3, p<0.001): 1; effect on the NAFLD symptom of the mice ([1]; at the administration dosage (1 mg/kg)): good improving effect; TG ([1]; liver TG, 1 mg/kg p.o. QD for 3 weeks, increased or decreased ratio of the experimental group to the model group): −53%*; LDL ([1]; serum, 1 mg/kg p.o. QD for 3 weeks, model group 0.31, p<0.01): 0.21
